Experimental data taken from patent publication US12310967B2, “Compositions and methods of treatment for neurological disorders comprising motor neuron diseases” (Gliapharm SA, priority 2017, dated 2025).

Experiments:
primary astrocytes [1] = test: High throughput screening (HTS) for lactate secretion: acidification of extracellular medium (SNARF5); format: cell-based, mouse; design: key to Score / HTS Score (SNARF5) / Score_SNARF: fraction of plate positive-control activity (1 = 100%); details: Appendix I, primary screening confirmation (SNARF5)
Protocol: Primary cultures of cerebrocortical astrocytes were obtained from 1-2-day-old OF1 mouse pups (Charles River Laboratories). Briefly, cortices were isolated and minced in small pieces under a dissecting microscope. The cells were incubated for 30 min at 37° C. in a solution containing 20 U/ml of papain enzyme (Worthington Biochemical), L-cysteine 1 mM (Sigma), and 10 kU/ml DNase I (Worthington Biochemical) for an enzymatic dissociation. Papain activity was stopped by the addition of fetal calf serum (FCS) to the solution, and a single-cell suspension was then obtained by mechanical dissociation, which consisted in cells trituration in a DMEM (D7777, Sigma-Aldrich) medium (supplemented with 44 mm NaHCO3, and 10 ml/L antibiotic/antimycotic solution) containing 10% FCS. The cells were seeded at an average density of 6×10^4 cells/cm^2 in poly-D-lysine-coated 96, 12 or 6-well culture plates, depending on their use, and incubated at 37° C. in a humidified atmosphere containing 5% CO2/95% air. Culture medium was renewed twice per week. Cells were stimulated and harvested between DIV14 and DIV17, when confluence and cell growth were optimal.
Secretion of lactate in a high-throughput screening (HTS) fashion was measured indirectly through the acidification of extracellular medium. To this end, primary astrocytes grown in 96-well plates for 17 days were stimulated with the compounds as listed herein.
After washing the cells twice with stimulation medium (DMEM (D5030, Sigma), 3 mM NaHCO3 and 5 mM Glucose) at 37° C., cells were stimulated with the compounds at a final concentration of 10 uM (1% DMSO final) in 50 ul per well of stimulation medium supplemented with 10 uM of the extracellular pH sensor SNARF-5F %-(AND-6)-CAR (Life Technologies Corporation). Each compound was tested in two different plates for duplicates.
After 90 min stimulation, fluorescence was read at exc. (excitation) 480 nm/emm. (emission) 580 nm and at exc 480 nm/emm. 630 nm. The ratio of fluorescence between 630 nm and 580 emission values, which represents extracellular pH, was calculated.
In each plate, 8 wells were used for negative controls (DMSO) and 8 wells were used for positive controls (CCCP 2 uM in DMSO). Z prime values were calculated for each of the plates tested and values<0 were discarded.
The average and SD of compounds' values tested in duplicates were calculated, and compound was noted as HIT when the difference between compound's average and negative control's average was greater than three times the sum of compound's SD and negative controls' SD. Only scores greater than 40% were considered as lead Hits for the CDC54K library; for the remaining libraries, all hits were considered. Scores are calculated as the % of activity compared to the positive control in each plate (which is 100%).
Primary screening hits were cherry picked on new plates and confirmed for SNARF5 effect, after having discarded those compounds that are fluorescent (exc. 480 nm/emm. 580 nm or 630 nm) before stimulation. Extracellular medium was next analyzed for extracellular lactate quantification for secondary screening.
Identification of lactate-enhancing drugs with high throughput screening (HTS) experiments on astrocytes primary cultures using extracellular pH dye (SNARF5F 5-(and-6)-carboxylic acid) for 90 min. The procedure is described in Material and Methods (2. Cell culture, 2.1. HTS for lactate secretion and 2.2. Extracellular lactate quantification).
The procedure was performed as follows: • Primary screening: acidification of the extracellular medium • Primary screening confirmation: acidification of the extracellular medium, removal of compounds with fluorescent activity at exc. 480 nm/emm. 580 nm or 630 n. • Secondary screening: dosage of extracellular lactate

primary astrocytes [2] = test: Extracellular lactate quantification; format: cell-based, mouse; details: for Score_LACTATE: Appendix I, secondary screening: extracellular lactate
Protocol: Secretion of L-lactate was determined in the extracellular medium of 96-well plated astrocytes after 90 min stimulation (at 37° C., in 5% CO2/95% air conditions) with the drug of interest. The stimulation medium was composed of D5030 medium (completed with D-glucose 5 mM and 44 mM sodium bicarbonate) for 90 min in concentrations ranging from 0 to 100 μM.
Briefly, 200 μl of a Glycine (Sigma)-Semicarbazide (Acros) 0.2M pH 10 buffer containing 3 mM NAD (Roche) and LDH 14 U/ml (Roche) was added to each well of a 96-well plate containing 30 μl aliquots complemented with 20 μl fresh complete D5030 medium. Samples were incubated at 37° C. for 1 h. After samples cooled down at room temperature, the fluorescence intensity (340 nm excitation/450 nm emission) that represents the amount of NADH produced was measured, and lactate concentration values were determined from a standard curve of L-lactate.
Statistical analysis consisted in ANOVA followed by Fisher LSD post-hoc test for pair-wise comparisons.
Levels of lactate secreted by astrocytes were measured in the extracellular medium at 90 min after stimulation with hits (molecules) from the CDC54K library.

| SMILES | Score_SNARF (primary astrocytes [1]) | Score_LACTATE (primary astrocytes [2]) | Score Lact. (primary astrocytes [2]; Appendix II, CDC54K library) |
| --- | --- | --- | --- |
| COc1ccc(C)cc1NS(=O)(=O)c1cc(-c2ccnn2C)cs1 [L924-0830] | 0.7153 | 0.9168 | – |
| Cc1cccc(NS(=O)(=O)c2cc(-c3ccnn3C)cs2)c1 [L924-0884] | 0.7507 | 0.7362 | – |
| CCn1nccc1-c1csc(S(=O)(=O)Nc2cc(C)ccc2C)c1 [L924-0988] | 0.6652 | 0.6139 | – |
| CCn1nccc1-c1csc(S(=O)(=O)Nc2ccccc2OC)c1 [L924-1088] | 0.8835 | 0.9106 | – |
| O=C(c1noc2ccc(S(=O)(=O)Nc3cccc(F)c3)cc12)N1CCCC1 [L995-0058] | 0.4197 | 0.424 | – |
| Cc1ccccc1NS(=O)(=O)c1ccc2onc(C(=O)N3CCCCC3)c2c1 [L995-0405] | 0.3724 | 0 | – |
| O=C(c1ccco1)N1CCCn2nc(-c3ccc(C(F)(F)F)cc3)cc2C1 [T200-0370] | 0.3804 | 0.2896 | – |
| COc1cccc(-c2cc3n(n2)CCCN(Cc2ccncc2)C3)c1 [T202-0973] | 0.2834 | 0 | – |
| O=C(C[n+]1cc(-c2ccc(Br)cc2)n2c1CCCCC2)c1ccccc1.[Br-] [T0500-4648] | 1.034 | 1.116 | – |
| Fc1ccc(Nc2nc(N3CCOCC3)c3ccccc3n2)cc1 [T0508-5193] | 0.3052 | 0 | – |
| O=S(=O)(Nc1ccc(O)c(Cl)c1)c1ccc2ccccc2c1 [T0517-8939] | 0.6382 | 0 | – |
| CC(C)OCCCNc1ncnc2c1CCC2 [T636-0027] | 0 | 0 | – |
| Cc1ccc(CNc2ncnc3c2CCC3)o1 [T636-0054] | 0 | 0 | – |
| COc1cccc(CNc2ncnc3c2CCC3)c1 [T636-0134] | 0 | 0.3283 | – |
| Cc1ccsc1C(=O)NC1CCN(c2ncnc3c2CCC3)C1 (centres unmarked) [T636-1114] | 0.6238 | 0.5477 | – |
| O=C(NCc1ccccc1)NC1CCN(c2ncnc3c2CCC3)C1 (centres unmarked) [T636-1210] | 0.4305 | 0.3226 | – |
| O=C(NCc1cccc(F)c1)NC1CCN(c2ncnc3c2CCC3)C1 (centres unmarked) [T636-1243] | 0.4179 | 0 | – |
| O=S(=O)(NC1CCN(c2ncnc3c2CCC3)C1)c1ccccc1 (centres unmarked) [T636-1250] | 0.8587 | 0.8982 | – |
| Cc1ccc(CN2CCN(c3ncnc4c3CCC4)CC2)o1 [T636-1937] | 0.473 | 0.8045 | – |
| COc1ccc(CN2CCN(c3ncnc4c3CCC4)CC2)cc1OC [T636-2007] | 0.8596 | 0.9841 | – |
| O=C(Cc1cccc(F)c1)N1CCC(Nc2ncnc3c2CCC3)C1 (centres unmarked) [T636-2360] | 0 | 0.413 | – |

| SMILES | Score_SNARF (primary astrocytes [1]) | Score_LACTATE (primary astrocytes [2]) | Score Lact. (primary astrocytes [2]; Appendix II, CDC54K library) |
| --- | --- | --- | --- |
| O=C(c1ccc(Cl)s1)N1CCC(Nc2ncnc3c2CCC3)C1 (centres unmarked) [T636-2391] | 0.8743 | 0.8854 | – |
| Cn1nccc1C(=O)N1CCC(Nc2ncnc3c2CCC3)C1 (centres unmarked) [T636-2425] | 0.2725 | 0.3027 | – |
| O=S(=O)(Nc1ccc(F)c(Cl)c1)c1ccc2ccccc2c1 [T5231424] | 0.3707 | 0.5258 | – |
| COc1ccccc1S(=O)(=O)Nc1ccc2nc(C)sc2c1 [T5246417] | 0.2455 | 0 | – |
| FC(F)(F)c1cccc(CNc2ncnc3sccc23)c1 [T5346988] | 0.9569 | 0.9327 | – |
| COc1ccc(C2SCCN2S(=O)(=O)c2cccc(C)c2)cc1OC (centres unmarked) [T5463658] | 0.4683 | 0.3773 | – |
| Cc1nc2ccc(NS(=O)(=O)c3ccccc3F)cc2s1 [T5511047] | 0.5545 | 0.3825 | – |
| Cc1cc(S(=O)(=O)NCc2ccncc2)c(Cl)cc1Cl [T5581430] | 0.505 | 0 | – |
| Cc1nc(-c2cccc(NS(=O)(=O)c3ccc(N4CCCC4=O)cc3)c2)cs1 [T5599698] | 0.8856 | 0.7496 | – |
| O=C(NC1CC1)c1cccc(NS(=O)(=O)c2ccc(N3CCCC3=O)cc2)c1 [T5618591] | 0.5353 | 0.3601 | – |
| CC(=O)c1cccc(NC(=O)C(C)Sc2ncnc3ccsc23)c1 (centres unmarked) [T5627721] | 0.7385 | 0.9487 | – |
| CC1c2ccsc2CCN1c1ncnc2sccc12 (centres unmarked) [T5630309] | 0.4816 | 0.7 | – |
| O=S(=O)(Nc1ccc2[nH]ncc2c1)c1ccc(C(F)(F)F)cc1 [T5653029] | 0.5642 | 1.354 | – |
| CC(Nc1ncnc2sccc12)c1ccccn1 (centres unmarked) [T5672380] | 0.7508 | 0.5883 | 0.58 |
| c1csc(C(Nc2ncnc3sccc23)C2CC2)c1 (centres unmarked) [T5713637] | 1.184 | 1.287 | – |
| c1ccc(C(Nc2ncnc3sccc23)C2CC2)cc1 (centres unmarked) [T6016487] | 1.081 | 1.857 | – |
| CC(=O)N1CCCc2cc(S(=O)(=O)NCc3cccc(C(F)(F)F)c3)ccc21 [T6099519] | 0.3944 | 0 | – |
| Cc1ccc(F)cc1NC(=O)Cc1nn(C)c(=O)c2ccccc12 [T6302989] | 0.4072 | 0 | – |
| c1ccc2c(c1)CN(c1ncnc3sccc13)CCN2 [T6768300] | 0.3742 | 0 | – |
| CN(C)Cc1cccc(CNc2ncnc3sccc23)c1 [T6783542] | 0.9183 | 1.033 | – |
